Measurements from ChEMBL document CHEMBL1151562, “Stereoselective synthesis of novel analogues of 2-deoxy- and 2,3-dideoxynucleosides with potential antiviral activity” (Bioorg Med Chem Lett, 1994).
The source made the active and inactive calls.

Columns and labels:
Type in all cases: functional, cell-based
[1] = test system: Daudi; assay: Tested for antiproliferative activity against human tumor DAUDI EBV-immortalized B-lymphoid cells up to 72 hrs at concentration of 10 ug/ml; Inactive
[2] = test system: Daudi; assay: Tested for antiproliferative activity against human tumor DAUDI EBV-immortalized B-lymphoid cells up to 72 hrs at concentration of 2.5 ug/ml; Inactive
[3] = test system: Daudi; assay: Tested for antiproliferative activity against human tumor DAUDI EBV-immortalized B-lymphoid cells up to 72 hrs at concentration of 5 ug/ml; Inactive
[4] = Tested for cell count against human tumor Molt-4 cell line for antiproliferative activity; Inactive
[5] = test system: Daudi; assay: Tested for antiproliferative activity against human tumor DAUDI EBV-immortalized B-lymphoid cells up to 72 hrs at concentration of 1.25 ug/ml; Inactive
[6] = Tested for cell count against human tumor DAUDI EBV-immortalized B-lymphoid cells for antiproliferative activity; Inactive
[7] = test system: K562; assay: Tested for cell count against human tumor K562 erythromyeloid stem cells for antiproliferative activity; Inactive
[8] = Tested for cell count against human tumor MT-2 T-lymphoid cells for antiproliferative activity; Inactive
[9] = test system: MT2; assay: Tested for antiproliferative activity against human tumor MT-2 T-lymphoid cells up to 72 hrs at concentration of 1.25 ug/ml; Inactive
[10] = test system: MT2; assay: Tested for antiproliferative activity against human tumor MT-2 T-lymphoid cells up to 72 hrs at concentration of 10 ug/ml; Inactive
[11] = test system: MT2; assay: Tested for antiproliferative activity against human tumor MT-2 T-lymphoid cells up to 72 hrs at concentration of 2.5 ug/ml; Inactive
[12] = test system: MT2; assay: Tested for antiproliferative activity against human tumor MT-2 T-lymphoid cells up to 72 hrs at concentration of 5 ug/ml; Inactive
[13] = Tested for antiproliferative activity against human tumor U937 cell line up to 72 hrs at concentration of 1.25 ug/ml; Inactive
[14] = (§1) Tested for antiproliferative activity against human tumor U937 cell line up to 72 hrs at concentration of 10 ug/ml; Inactive
[15] = Tested for antiproliferative activity against human tumor U937 cell line up to 72 hrs at concentration of 2.5 ug/ml; Inactive
[16] = (§2) Tested for antiproliferative activity against human tumor U937 cell line up to 72 hrs at concentration of 5 ug/ml; Inactive
[17] = Tested for cell count against human tumor HL60 myeloid cells for antiproliferative activity; Inactive
[18] = test system: MOLT-4; assay: Tested for antiproliferative activity against human tumor Molt-4 cell line up to 72 hrs at concentration of 5 ug/ml; Inactive
[19] = test system: MOLT-4; assay: Tested for antiproliferative activity against human tumor Molt-4 cell line up to 72 hrs at concentration of 1.25 ug/ml; Inactive
[20] = test system: MOLT-4; assay: Tested for antiproliferative activity against human tumor Molt-4 cell line up to 72 hrs at concentration of 10 ug/ml; Inactive
[21] = test system: MOLT-4; assay: Tested for antiproliferative activity against human tumor Molt-4 cell line up to 72 hrs at concentration of 2.5 ug/ml; Inactive
[22] = test system: HL-60; assay: Tested for antiproliferative activity against human tumor HL60 myeloid cells up to 72 hrs at concentration of 10 ug/ml; Inactive
[23] = test system: Daudi; assay: as §1; details: U-937
[24] = test system: HL-60; assay: as §2

Measured: Activity

CC1[C@@H](O)[C@@H](CO)O[C@H]1n1ccc(=O)[nH]c1=O (single isomer, unassigned; 5b)
not listed: [22] | [23] | [24]
inactive: all other assays above

C[C@H]1C[C@@H](CO)O[C@H]1n1ccc(=O)[nH]c1=O
not listed: [22] | [23] | [24]
inactive: all other assays above

CCC[C@H]1C[C@@H](CO)OC1n1ccc(=O)[nH]c1=O (some centres not stated)
not listed: [22] | [23] | [24]
inactive: all other assays above

CC1[C@@H](O)[C@@H](CO)O[C@H]1n1ccc(=O)[nH]c1=O (single isomer, unassigned; 5a)
not listed: [14] | [24]
inactive: all other assays above

C=CCC1C(O)[C@@H](CO)O[C@H]1n1ccc(=O)[nH]c1=O (single isomer, unassigned)
not listed: [22] | [23] | [24]
inactive: all other assays above

C=CCC1C(O)[C@@H](CO)O[C@H]1n1ccc(N)nc1=O (single isomer, unassigned)
not listed: [22] | [23] | [24]
inactive: all other assays above

C=CC[C@H]1C[C@@H](CO)OC1n1ccc(=O)[nH]c1=O (some centres not stated)
not listed: [22] | [23]
inactive: all other assays above

CCCC1C(O)[C@@H](CO)O[C@H]1n1ccc(N)nc1=O (single isomer, unassigned)
not listed: [22] | [23] | [24]
inactive: all other assays above

CCCC1C(O)[C@@H](CO)O[C@H]1n1ccc(=O)[nH]c1=O (single isomer, unassigned)
not listed: [22] | [23] | [24]
inactive: all other assays above

C[C@@H]1C[C@@H](CO)O[C@H]1n1ccc(=O)[nH]c1=O
not listed: [22] | [23] | [24]
inactive: all other assays above
